The record followed here is PubChem BioAssay (NCI).

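Growth conditions: 96-well plates. Treatment: test compound, 48 hours, 5 concentrations. Analysis: linear interpolation between bracketing concentrations; unreached endpoints set to highest concentration. At the GI50, growth is halved. The concentration for full growth arrest is given as TGI.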 Where only a bound is given, the exact number is not on record here.

Among the test systems are UACC-62 melanoma; MALME-3M melanoma; PC-3 prostate; HS 578T breast; KM12 colon; UO-31 renal; T-47D breast; SF-539 CNS; U251 CNS; SK-MEL-2 melanoma.
Assay in all cases: NCI anticancer screen, dose series, 48 h

For `Cc1cc(Cl)nc2nc(Cl)c(N)cc12`, the TGI was 5.95 µM in the assay on UACC-62 melanoma; 29.3 µM with MALME-3M melanoma; 30.4 µM in the assay on PC-3 prostate; greater than 24.3 µM in the assay with HS 578T breast; 17.8 µM with KM12 colon; 9.54 µM in the assay on UO-31 renal. Besides, the TGI in the assay on T-47D breast was 15.4 µM; in the assay on SF-539 CNS it was 30.6 µM; in the assay on U251 CNS it was 4.3 µM; in the assay with SK-MEL-2 melanoma, 31.4 µM.

As to `CC(O)C1(CNc2cc(Cl)nc(N)n2)CCCCC1` (configuration not stated), the TGI with UACC-62 melanoma, in the assay with MALME-3M melanoma, with PC-3 prostate, with HS 578T breast, with KM12 colon and in the assay with UO-31 renal was greater than 100 µM in each case. For the same compound, the TGI in the assay on T-47D breast, in the assay on SF-539 CNS, in the assay with U251 CNS and with SK-MEL-2 melanoma was greater than 100 µM in each case.

In the case of `NNC(=O)CC(=O)Nc1cccc(Cl)c1`, the TGI in the assay with UACC-62 melanoma, in the assay on MALME-3M melanoma, with PC-3 prostate, in the assay with HS 578T breast, with KM12 colon and in the assay with UO-31 renal was greater than 100 µM in each case. The TGI in the assay on T-47D breast, in the assay with SF-539 CNS, in the assay with U251 CNS and in the assay on SK-MEL-2 melanoma was greater than 100 µM each time.

Regarding `CCNC(=O)c1cc(Cl)ccc1NC(=O)C12CC3CC(CC(C3)C1)C2`, the TGI was greater than 100 µM in the assay on MALME-3M melanoma; greater than 100 µM in the assay on PC-3 prostate; greater than 100 µM in the assay with HS 578T breast; greater than 100 µM with KM12 colon; 56.4 µM in the assay with UO-31 renal; greater than 100 µM in the assay on T-47D breast. The TGI in the assay on SF-539 CNS was greater than 100 µM; in the assay on U251 CNS, greater than 100 µM; in the assay with SK-MEL-2 melanoma, 81.9 µM.

In the case of `N#CC1(C#N)NC(c2ccccc2)C(C#N)(C#N)NC1c1ccccc1` (configuration not stated), the TGI with UACC-62 melanoma, in the assay on MALME-3M melanoma, in the assay on PC-3 prostate, in the assay with HS 578T breast, with KM12 colon and in the assay on UO-31 renal was greater than 100 µM each time. Also, the TGI in the assay with T-47D breast, in the assay on SF-539 CNS, with U251 CNS and with SK-MEL-2 melanoma was greater than 100 µM in each case.

As for `CCOC(=O)c1cc(-n2nnc3ccccc32)cn1C`, the TGI in the assay with UACC-62 melanoma, in the assay with MALME-3M melanoma, with PC-3 prostate, in the assay with HS 578T breast, with KM12 colon and in the assay with UO-31 renal was greater than 10 µM each time. Also, the TGI with T-47D breast, with SF-539 CNS, in the assay on U251 CNS and in the assay on SK-MEL-2 melanoma was greater than 10 µM each time.

Take `COC(=O)C1CCN(C(=O)OC(C)(C)C)CC1`: the TGI in the assay with UACC-62 melanoma, with MALME-3M melanoma, in the assay with PC-3 prostate, in the assay on HS 578T breast, in the assay on KM12 colon and in the assay with UO-31 renal was greater than 100 µM each time. Moreover, the TGI with T-47D breast, with SF-539 CNS, in the assay with U251 CNS and in the assay on SK-MEL-2 melanoma was greater than 100 µM in each case.

Regarding `S=C(NCCc1ccccn1)N/N=C/c1ccccn1`, the TGI is 4.59 µM in the assay on UACC-62 melanoma; greater than 56.5 µM with MALME-3M melanoma; greater than 100 µM in the assay on PC-3 prostate; greater than 100 µM in the assay on HS 578T breast; greater than 100 µM in the assay on KM12 colon; greater than 49.1 µM with UO-31 renal. Besides, the TGI was greater than 100 µM in the assay with T-47D breast, 3.59 µM in the assay with SF-539 CNS, greater than 100 µM in the assay with U251 CNS and 9.9 µM in the assay on SK-MEL-2 melanoma.

For the compound `COC(=O)/C=C\C(C#N)(C#N)N=Cc1cccc(OC)c1`, the TGI with UACC-62 melanoma was determined as 31.8 µM; in the assay with MALME-3M melanoma it was 4.37 µM; in the assay on PC-3 prostate it was 29.5 µM; in the assay with HS 578T breast, 38 µM; in the assay with KM12 colon it was 32.6 µM; in the assay with UO-31 renal, 8.46 µM. In addition, the TGI was 18.9 µM in the assay with T-47D breast, 7.83 µM with SF-539 CNS, 32.2 µM with U251 CNS and 32.4 µM in the assay with SK-MEL-2 melanoma.

For the compound `NC(N)=NS(=O)(=O)c1ccc(N/N=C2/CCOC2=O)cc1`, the TGI in the assay with UACC-62 melanoma, in the assay with MALME-3M melanoma, with PC-3 prostate, in the assay with HS 578T breast, with KM12 colon and in the assay with UO-31 renal was greater than 100 µM each time. The TGI in the assay on T-47D breast, in the assay on SF-539 CNS, in the assay with U251 CNS and in the assay on SK-MEL-2 melanoma was greater than 100 µM each time.

In the case of `CCOC(=O)/C=C(\C(=O)OCC)n1ccc(=O)n(Cc2cnnn2CCCCOC(C)=O)c1=O`, the TGI with UACC-62 melanoma is 23.4 µM; in the assay with MALME-3M melanoma, 3.84 µM; in the assay on PC-3 prostate, 30.8 µM; with HS 578T breast, 58.9 µM; in the assay on KM12 colon it was 30.5 µM; in the assay with UO-31 renal it was 36.5 µM. Moreover, the TGI was 17.4 µM in the assay on T-47D breast, 5.44 µM in the assay on SF-539 CNS, greater than 59.3 µM in the assay on U251 CNS and 36.3 µM in the assay on SK-MEL-2 melanoma.

On to `CCOC(=O)C(NC(=O)c1ccccc1)(Nc1ccc(S(=O)(=O)Nc2ncccn2)cc1)C(F)(F)F` (configuration not stated), for which the TGI in the assay on UACC-62 melanoma, in the assay with MALME-3M melanoma, in the assay on PC-3 prostate, in the assay on HS 578T breast, in the assay with KM12 colon and with UO-31 renal was greater than 100 µM throughout. Besides, the TGI with T-47D breast, in the assay on SF-539 CNS, in the assay on U251 CNS and with SK-MEL-2 melanoma was greater than 100 µM each time.

On to `CN(C)c1ccc(/C=C/c2ccc(S(N)(=O)=O)cc2)cc1`, for which the TGI with MALME-3M melanoma was 37.6 µM; in the assay on PC-3 prostate, 34.8 µM; with HS 578T breast it was 12.6 µM; in the assay with KM12 colon it was greater than 100 µM; with UO-31 renal, 34.5 µM; in the assay with T-47D breast, 80.4 µM. Also, the results for the TGI in the assay with SF-539 CNS, with U251 CNS and with SK-MEL-2 melanoma were 25.6 µM, 31.7 µM and greater than 100 µM, respectively. The GI50 is 3.03 µM with HS 578T breast, 8.28 µM in the assay with KM12 colon, 11.7 µM in the assay on SF-539 CNS and 11.2 µM in the assay on U251 CNS.
